Reference: ChEMBL document CHEMBL4417631, “Oral peptide inhibitors of interleukin-23 receptor and their use to treat inflammatory bowel diseases” (2017)
Where a SMILES comes first, the peptide text is derived from it.

Biological target: T1, Interleukin-23 receptor (Homo sapiens, UniProt Q5VWK5)
T1 sequence (Q5VWK5 whole entry): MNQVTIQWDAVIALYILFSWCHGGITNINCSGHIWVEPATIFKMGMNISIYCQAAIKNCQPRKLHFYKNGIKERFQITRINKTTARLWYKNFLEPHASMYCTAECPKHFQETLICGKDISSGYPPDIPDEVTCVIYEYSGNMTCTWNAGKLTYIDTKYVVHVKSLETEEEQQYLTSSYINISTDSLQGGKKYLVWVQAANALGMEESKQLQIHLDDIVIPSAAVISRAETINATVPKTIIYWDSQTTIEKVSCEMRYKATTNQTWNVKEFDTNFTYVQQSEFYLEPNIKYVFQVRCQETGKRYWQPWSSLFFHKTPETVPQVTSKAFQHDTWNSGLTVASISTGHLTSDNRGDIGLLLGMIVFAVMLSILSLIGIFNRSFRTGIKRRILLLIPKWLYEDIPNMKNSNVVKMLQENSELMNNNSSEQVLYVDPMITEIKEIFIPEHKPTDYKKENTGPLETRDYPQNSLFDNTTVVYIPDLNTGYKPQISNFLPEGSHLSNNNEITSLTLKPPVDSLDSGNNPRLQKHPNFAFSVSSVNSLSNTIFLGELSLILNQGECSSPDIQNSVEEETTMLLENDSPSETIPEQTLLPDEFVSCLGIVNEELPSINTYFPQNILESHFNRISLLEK
Assay: Inhibition of interleukin-23 binding to human interleukin-23 receptor incubated for 2 hrs by competitive binding ELISA

Compound | IC50 [nM]
CC(=O)N[C@@H](CS)C(=O)N[C@@H](CCC(N)=O)C(=O)N[C@H](C(=O)N[C@@H](Cc1c[nH]c2ccccc12)C(=O)N[C@@H](CCC(N)=O)C(=O)N[C@@H](CS)C(=O)N[C@H](C(=O)N[C@@H](Cc1c[nH]c2ccccc12)C(=O)N[C@@H](CCC(C)C)C(=O)N[C@@H](CCC(=O)O)C(=O)N[C@@H](CC(N)=O)C(=O)NCC(N)=O)[C@@H](C)O)[C@@H](C)O | > 30000
CC(=O)N[C@@H](CS)C(=O)N[C@@H](CCC(N)=O)C(=O)N[C@H](C(=O)N[C@@H](Cc1c[nH]c2ccccc12)C(=O)N[C@@H](CCC(N)=O)C(=O)N[C@@H](CS)C(=O)N[C@@H](Cc1ccc(O)cc1)C(=O)N[C@@H](Cc1c[nH]c2ccccc12)C(=O)N[C@@H](CCC(C)C)C(=O)N[C@@H](CCC(=O)O)C(=O)N[C@@H](CC(N)=O)C(=O)NCC(=O)N1CCC[C@H]1C(N)=O)[C@@H](C)O | 97 to 239
C[C@@H](O)[C@H](NC(=O)[C@H](CC(=O)O)NC(=O)[C@@H](N)CS)C(=O)N[C@@H](Cc1c[nH]c2ccccc12)C(=O)N[C@@H](CCCCN)C(=O)N[C@@H](CS)C(=O)N[C@@H](Cc1ccc(O)cc1)C(=O)N[C@@H](Cc1c[nH]c2ccccc12)C(=O)N[C@@H](Cc1cnc[nH]1)C(=O)N[C@@H](CCCNC(=N)N)C(=O)N[C@@H](CCC(N)=O)C(=O)N[C@@H](CO)C(N)=O (H-CDTWKCYWHRQS-NH2) | 500 to 1000
CC(=O)N[C@@H](CS)C(=O)N[C@H](C(=O)N[C@H](C(=O)N[C@@H](Cc1c[nH]c2ccccc12)C(=O)N[C@@H](CCC(=O)O)C(=O)N[C@@H](CS)C(=O)N[C@@H](Cc1ccc(O)cc1)C(=O)N[C@@H](Cc1c[nH]c2ccccc12)C(=O)N[C@@H](Cc1cnc[nH]1)C(=O)N[C@@H](CCC(=O)O)C(=O)N[C@@H](Cc1ccccc1)C(=O)NCC(N)=O)[C@@H](C)O)[C@@H](C)O (Ac-CTTWECYWHEFG-NH2) | < 500
CC(=O)N[C@H](CCCCN)C(=O)NCCC(=O)N[C@@H](CS)C(=O)N[C@@H](C)C(=O)N[C@@H](CC(=O)O)C(=O)N[C@@H](Cc1c[nH]c2ccccc12)C(=O)N[C@H](C(=O)N[C@@H](CS)C(=O)N[C@@H](Cc1ccc(O)cc1)C(=O)N[C@@H](Cc1c[nH]c2ccccc12)C(=O)N[C@@H](Cc1cnc[nH]1)C(=O)N[C@H](C(=O)N[C@@H](Cc1ccccc1)C(=O)NCC(=O)O)[C@@H](C)O)C(C)C | > 1000
CC(=O)N[C@@H](CS)C(=O)N[C@@H](C)C(=O)N[C@@H](CC(=O)O)C(=O)N[C@@H](Cc1c[nH]c2ccccc12)C(=O)N[C@H](C(=O)N[C@@H](CS)C(=O)N[C@@H](Cc1ccc(O)cc1)C(=O)N[C@@H](Cc1c[nH]c2ccccc12)C(=O)N[C@@H](Cc1cnc[nH]1)C(=O)N[C@H](C(=O)N[C@@H](Cc1ccccc1)C(=O)NCC(=O)NCCOCCC(=O)N[C@H](CCCNC(=N)N)C(=O)O)[C@@H](C)O)C(C)C | < 500
C[C@@H](O)[C@H](NC(=O)[C@@H](N)CS)C(=O)N[C@@H](CC(=O)O)C(=O)N[C@@H](Cc1c[nH]c2ccccc12)C(=O)N[C@@H](CCCCN)C(=O)N[C@@H](CS)C(=O)N[C@@H](Cc1ccc(O)cc1)C(=O)N[C@@H](Cc1c[nH]c2ccccc12)C(=O)N[C@@H](Cc1cnc[nH]1)C(=O)N[C@@H](CCC(=O)O)C(=O)N[C@@H](Cc1ccccc1)C(=O)NCC(N)=O (H-CTDWKCYWHEFG-NH2) | 500 to 1000
CC(=O)N[C@H](C(=O)N[C@@H](CCC(N)=O)C(=O)N[C@H](C(=O)N[C@@H](Cc1c[nH]c2ccccc12)C(=O)N[C@@H](CCC(N)=O)C(=O)N[C@H](C(=O)N[C@@H](Cc1ccc(C#N)cc1)C(=O)N[C@@H](Cc1ccc2ccccc2c1)C(=O)N[C@@](C)(CCCN)C(=O)N[C@@H](CCC(=O)O)C(=O)N[C@@H](CC(N)=O)C(=O)NCC(N)=O)C(C)(C)S)[C@@H](C)O)C(C)(C)S | 100 to 1000
CC(=O)N[C@@H](CS)C(=O)N[C@@H](C)C(=O)N[C@@H](CC(=O)O)C(=O)N[C@@H](Cc1c[nH]c2ccccc12)C(=O)N[C@H](C(=O)N[C@@H](CS)C(=O)N[C@@H](Cc1ccc(O)cc1)C(=O)N[C@@H](Cc1c[nH]c2ccccc12)C(=O)N[C@@H](Cc1cnc[nH]1)C(=O)N[C@H](C(=O)N[C@@H](Cc1ccccc1)C(=O)NCC(=O)O)[C@@H](C)O)C(C)C | < 500
